Laboratory results published in US10562857B2 (AFASCI, Inc., priority 2015, dated 2020).

Legend:
Cardiac Na+ channels = target: T1, Cardiac Na+ channels (Homo sapiens, UniProt Q14524); assay: Cardiac sodium currents in human iPSC-derived cardiomyocytes; format: cell-based; conditions: for IC50: human iPSC cardiomyocytes
T1 construct: host or cells: human iPSC-derived cardiomyocytes
Procedure: Cardiac sodium channels play a critical role in heart contraction. Inhibition of these sodium channels could potentially cause severe unwanted side effects. Therefore the representative example compounds in Table 2 were tested in cardiac sodium channels. Cardiomyocytes derived from human induced pluripotent stem cells (iPSC-CM) were obtained from Axol Bioscience Ltd (Cambridge, UK). Cells were thawed and grown on matrigel coated glass coverslips in Cardiomyocyte Maintenance Medium (Axol Bioscience). […] The internal solution was composed (in mM) of 120 KF, 10 HEPES, 11 EGTA, 1 CaCl2, 1 MgCl2, 10 TEA-Cl (pH 7.2 adjusted with KOH). Sodium currents were recorded at a holding potential of −100 mV and depolarized to −20 mV. Cells were incubated with example compounds until currents reached a steady-state level. To determine IC50 values, example compounds were applied gradually from low to high concentrations. The current responses were normalized to the control, percent inhibition was calculated and a sigmoidal dose response curve was plotted to determine IC50 values as described above.

Cav3.3 = target: T2, Cav3.3 (Homo sapiens, UniProt Q9P0X4); assay: Whole-cell patch clamp of T-type Cav3.3 channel expressed in HEK293 cells; format: cell-based; conditions: Table 2
T2 construct: expressed in transfected cells; host or cells: HEK-293, tetracycline inducible expression system (Invitrogen)
Procedure: (§1) Cav3.1, Cav3.2 or Cav3.3 channels were expressed in human embryonic kidney (HEK)-293 cells using a tetracycline inducible expression system (Invitrogen). Cells were maintained in 25 cm^2 tissue culture flasks at 37° C., 5% CO2, and 100% relative humidity in D-MEM/F12 (Dulbecco's Modified Eagle Medium/Nutrient Mixture F-12; Gibco) supplemented with fetal bovine serum (FBS, 10% v/v), sodium pyruvate (0.5 mM, Gibco), penicillin-streptomycin (100 U/mL, 100 μg/mL) and Geneticin® Selective antibiotic (G418; 0.5 mg/mL). Cells were detached from the flask base using a non-enzymatic cell dissociation solution (Cellstripper, Corning), removed and re-seeded on to poly-D-lysine coated glass coverslips in 35 mm dishes.
(§2) Whole-cell voltage clamp recordings were performed on rat or mouse DRG neurons within 2 days after acutely dissociation or cultured HEK293 cells expressing T-type channels (encoded by Cav3.1, Cav3.2 or Cav3.3 channels). All experiments were performed at room temperature (around 21° C.). Whole-cell currents were recorded using a MultiClamp 700B amplifier and analyzed offline with pCLAMP10.4 software (Molecular Devices, LLC, Sunnyvale Calif., USA). […] Since the sodium ions were absent in the external solution, tetrodoctoxin was not needed. Calcium currents were recorded at a holding potential of −100 mV and then depolarized to −30 mV for 100 ms to activate either Cav3.1, Cav3.2, or Cav3.3 expressed in HEK cells. An interpulse interval of 10 seconds allowed the channel recovery from inactivation, and achieved stable current recordings. To record sodium (Na^+) currents in DRG neurons, the external solution used the modified Krebs solution specified above. The internal solution was composed (in mM) of 120 CsF, 10 HEPES, 11 EGTA, 1 CaCl2, 1 MgCl2, 10 TEA-Cl, 4 MgATP and 0.3 MgGTP (pH 7.3-7.4 adjusted with CsOH). […] To record potassium currents in DRG neurons, the external solution used the modified Kreb's solution specified above. The internal solution was composed (in mM) of 65 KCl, 80 KF, 5 KOH, 10 EGTA, 2 MgATP (pH 7.3-7.4 adjusted with KOH). Recording electrodes were fabricated using a P-87 puller (Sutter Instrument Co., Novato, Calif., USA). The tip of resistance was 3-4 MQ in bath and the series resistance was less than 10 MΩ after whole cell configuration. All reagents were purchased from Sigma unless specified otherwise. Test compounds were usually applied via a rapid solution exchange system with 8 fine polyplastic tubings (100 μm, OD) glued in a holder in parallel and located closely to the recorded cells. The current responses were normalized to the control, percent inhibition was calculated and sigmoidal dose-response curves were generated using XLFit (IDBS, Surrey, UK) or Prism (GraphPad Software, La Jolla, Calif., US) to calculate IC50 values and Hill slopes using the following equation Y=Bottom+(Top−Bottom)/(1+10^((Log EC50−X)[…])).

DRG ion channels Na+ = assay: Sodium currents in DRG neurons, patch clamp; format: cell-based, rodent; conditions: Table 2
Procedure: (§3) All the procedures related to animal handling were in strict accordance with NIH guidelines and IACUC approved protocols. Briefly, the spine was taken out and split into two halves from the middle line after sacrificing the mice by decapitation. […] The DRG neurons were minced with fine scissors and incubated at 35° C. for 50 min. […] Finally the cells were dispersed onto poly-1-ornithine-coated cover slips and maintained in a modified Krebs solution with streptomycin sulfate (0.2 mM), Penicillin G Sodium (0.3 mM), and Gentamycin (0.1 mM) at 21° C. […] All experiments were performed at room temperature (around 21° C.). Whole-cell currents were recorded using a MultiClamp 700B amplifier and analyzed offline with pCLAMP10.4 software (Molecular Devices, LLC, Sunnyvale Calif., USA). […] The internal solution was composed (in mM) of 125 CsCl, 10 HEPES (acid), 10 EGTA (ethylene glycol tetraacetic acid), 1 CaCl2, 1 MgCl2, 4 MgATP and 0.3 […] 7.3-7.4 adjusted with CsOH; osmolality verified as 295 mOsm/kg). Since the sodium ions were absent in the external solution, tetrodoctoxin was not needed. […] To record sodium (Na^+) currents in DRG neurons, the external solution used the modified Krebs solution specified above. […] To record potassium currents in DRG neurons, the external solution used the modified Kreb's solution specified above. The internal solution was composed (in mM) of 65 KCl, 80 KF, 5 KOH, 10 EGTA, 2 MgATP (pH 7.3-7.4 adjusted with KOH). Recording electrodes were fabricated using a P-87 puller (Sutter Instrument Co., Novato, Calif., USA). […] All reagents were purchased from Sigma unless specified otherwise. […] Selectivity among the three subtypes of the Cav3 T-type channel, and off-target effects on other key ion channels of the representative example compounds are presented in Table 2. Sodium and potassium channels in the rodent DRG neurons were recorded and tested as described above. The human ether-a-go-go-related gene (hERG) encodes the rapidly activating potassium channel (IKr) contributing to the repolarization of the cardiac action potential. The blockade of hERG can lead to a QT prolongation in the electrocardiogram known as long QT syndrome (Sanguinetti, et al., 1995). Therefore the representative example compounds in Table 2 were tested against the hERG channel.

Cav3.1 = target: T3, Cav3.1 (Homo sapiens, UniProt O43497); assay: Whole-cell patch clamp of T-type Cav3.1 channel expressed in HEK293 cells; format: cell-based; conditions: Table 2
T3 construct: expressed in transfected cells; host or cells: HEK-293, tetracycline inducible expression system (Invitrogen)
T3 sequence (O43497 whole entry): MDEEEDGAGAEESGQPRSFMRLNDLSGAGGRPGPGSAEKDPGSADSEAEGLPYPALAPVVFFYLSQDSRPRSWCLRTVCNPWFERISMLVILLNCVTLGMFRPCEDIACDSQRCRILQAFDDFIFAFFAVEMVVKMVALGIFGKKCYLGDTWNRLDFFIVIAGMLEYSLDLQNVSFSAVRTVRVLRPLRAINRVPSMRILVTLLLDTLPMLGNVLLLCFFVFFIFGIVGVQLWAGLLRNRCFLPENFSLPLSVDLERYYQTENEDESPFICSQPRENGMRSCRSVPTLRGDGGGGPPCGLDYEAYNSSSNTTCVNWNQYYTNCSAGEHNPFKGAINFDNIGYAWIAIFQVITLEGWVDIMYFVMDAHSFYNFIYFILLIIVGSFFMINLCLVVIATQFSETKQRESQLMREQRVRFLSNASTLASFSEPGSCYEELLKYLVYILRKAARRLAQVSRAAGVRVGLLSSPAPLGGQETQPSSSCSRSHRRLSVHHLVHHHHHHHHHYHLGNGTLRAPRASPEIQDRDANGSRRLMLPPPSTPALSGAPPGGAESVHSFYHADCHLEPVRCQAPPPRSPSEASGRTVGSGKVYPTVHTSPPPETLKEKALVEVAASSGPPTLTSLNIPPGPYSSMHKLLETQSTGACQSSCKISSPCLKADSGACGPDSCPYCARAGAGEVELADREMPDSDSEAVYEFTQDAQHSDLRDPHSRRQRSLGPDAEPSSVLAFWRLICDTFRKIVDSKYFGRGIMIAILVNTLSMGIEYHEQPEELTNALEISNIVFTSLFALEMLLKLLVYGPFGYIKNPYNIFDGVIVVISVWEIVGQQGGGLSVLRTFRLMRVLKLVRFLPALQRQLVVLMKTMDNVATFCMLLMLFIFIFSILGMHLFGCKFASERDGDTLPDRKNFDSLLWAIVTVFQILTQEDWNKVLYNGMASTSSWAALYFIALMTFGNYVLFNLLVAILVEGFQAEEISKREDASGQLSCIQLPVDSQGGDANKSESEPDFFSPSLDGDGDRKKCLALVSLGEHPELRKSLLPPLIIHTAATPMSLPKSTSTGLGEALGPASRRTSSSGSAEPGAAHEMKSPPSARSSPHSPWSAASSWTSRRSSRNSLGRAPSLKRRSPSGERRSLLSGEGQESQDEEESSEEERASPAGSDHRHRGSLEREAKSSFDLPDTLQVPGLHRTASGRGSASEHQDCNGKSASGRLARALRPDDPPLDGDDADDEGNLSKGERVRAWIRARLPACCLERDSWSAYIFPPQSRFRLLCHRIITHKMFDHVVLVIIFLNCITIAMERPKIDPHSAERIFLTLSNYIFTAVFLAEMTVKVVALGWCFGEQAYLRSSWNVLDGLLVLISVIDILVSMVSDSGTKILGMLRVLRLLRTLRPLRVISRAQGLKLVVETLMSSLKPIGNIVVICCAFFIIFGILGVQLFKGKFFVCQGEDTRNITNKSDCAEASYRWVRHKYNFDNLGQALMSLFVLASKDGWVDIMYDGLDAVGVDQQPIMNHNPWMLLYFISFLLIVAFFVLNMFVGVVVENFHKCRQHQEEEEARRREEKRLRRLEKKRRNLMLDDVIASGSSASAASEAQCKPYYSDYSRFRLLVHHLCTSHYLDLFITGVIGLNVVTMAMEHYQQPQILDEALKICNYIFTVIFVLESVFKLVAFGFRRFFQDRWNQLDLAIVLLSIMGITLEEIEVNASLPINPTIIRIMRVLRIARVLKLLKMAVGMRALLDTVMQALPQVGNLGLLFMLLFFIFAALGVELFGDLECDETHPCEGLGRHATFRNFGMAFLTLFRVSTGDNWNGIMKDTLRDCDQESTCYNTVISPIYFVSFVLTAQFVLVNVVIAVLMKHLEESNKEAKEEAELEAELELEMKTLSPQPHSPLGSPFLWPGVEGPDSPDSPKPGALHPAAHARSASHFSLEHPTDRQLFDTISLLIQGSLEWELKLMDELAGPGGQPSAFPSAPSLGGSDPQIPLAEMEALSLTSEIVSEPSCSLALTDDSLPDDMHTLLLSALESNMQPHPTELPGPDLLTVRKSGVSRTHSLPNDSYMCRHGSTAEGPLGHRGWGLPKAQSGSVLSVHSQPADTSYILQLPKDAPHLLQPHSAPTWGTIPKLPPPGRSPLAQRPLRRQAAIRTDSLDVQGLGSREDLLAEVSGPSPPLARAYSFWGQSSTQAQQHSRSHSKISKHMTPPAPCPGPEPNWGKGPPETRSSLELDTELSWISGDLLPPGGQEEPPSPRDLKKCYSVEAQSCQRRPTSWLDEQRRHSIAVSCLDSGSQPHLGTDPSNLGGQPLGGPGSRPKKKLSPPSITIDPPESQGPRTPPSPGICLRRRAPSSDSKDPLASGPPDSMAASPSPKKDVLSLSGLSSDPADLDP
Procedure: as §1, §2

DRG ion channels K+ = assay: Potassium currents in DRG neurons, patch clamp; format: cell-based, rodent; conditions: Table 2
Procedure: as §3

T1 sequence (Q14524 whole entry): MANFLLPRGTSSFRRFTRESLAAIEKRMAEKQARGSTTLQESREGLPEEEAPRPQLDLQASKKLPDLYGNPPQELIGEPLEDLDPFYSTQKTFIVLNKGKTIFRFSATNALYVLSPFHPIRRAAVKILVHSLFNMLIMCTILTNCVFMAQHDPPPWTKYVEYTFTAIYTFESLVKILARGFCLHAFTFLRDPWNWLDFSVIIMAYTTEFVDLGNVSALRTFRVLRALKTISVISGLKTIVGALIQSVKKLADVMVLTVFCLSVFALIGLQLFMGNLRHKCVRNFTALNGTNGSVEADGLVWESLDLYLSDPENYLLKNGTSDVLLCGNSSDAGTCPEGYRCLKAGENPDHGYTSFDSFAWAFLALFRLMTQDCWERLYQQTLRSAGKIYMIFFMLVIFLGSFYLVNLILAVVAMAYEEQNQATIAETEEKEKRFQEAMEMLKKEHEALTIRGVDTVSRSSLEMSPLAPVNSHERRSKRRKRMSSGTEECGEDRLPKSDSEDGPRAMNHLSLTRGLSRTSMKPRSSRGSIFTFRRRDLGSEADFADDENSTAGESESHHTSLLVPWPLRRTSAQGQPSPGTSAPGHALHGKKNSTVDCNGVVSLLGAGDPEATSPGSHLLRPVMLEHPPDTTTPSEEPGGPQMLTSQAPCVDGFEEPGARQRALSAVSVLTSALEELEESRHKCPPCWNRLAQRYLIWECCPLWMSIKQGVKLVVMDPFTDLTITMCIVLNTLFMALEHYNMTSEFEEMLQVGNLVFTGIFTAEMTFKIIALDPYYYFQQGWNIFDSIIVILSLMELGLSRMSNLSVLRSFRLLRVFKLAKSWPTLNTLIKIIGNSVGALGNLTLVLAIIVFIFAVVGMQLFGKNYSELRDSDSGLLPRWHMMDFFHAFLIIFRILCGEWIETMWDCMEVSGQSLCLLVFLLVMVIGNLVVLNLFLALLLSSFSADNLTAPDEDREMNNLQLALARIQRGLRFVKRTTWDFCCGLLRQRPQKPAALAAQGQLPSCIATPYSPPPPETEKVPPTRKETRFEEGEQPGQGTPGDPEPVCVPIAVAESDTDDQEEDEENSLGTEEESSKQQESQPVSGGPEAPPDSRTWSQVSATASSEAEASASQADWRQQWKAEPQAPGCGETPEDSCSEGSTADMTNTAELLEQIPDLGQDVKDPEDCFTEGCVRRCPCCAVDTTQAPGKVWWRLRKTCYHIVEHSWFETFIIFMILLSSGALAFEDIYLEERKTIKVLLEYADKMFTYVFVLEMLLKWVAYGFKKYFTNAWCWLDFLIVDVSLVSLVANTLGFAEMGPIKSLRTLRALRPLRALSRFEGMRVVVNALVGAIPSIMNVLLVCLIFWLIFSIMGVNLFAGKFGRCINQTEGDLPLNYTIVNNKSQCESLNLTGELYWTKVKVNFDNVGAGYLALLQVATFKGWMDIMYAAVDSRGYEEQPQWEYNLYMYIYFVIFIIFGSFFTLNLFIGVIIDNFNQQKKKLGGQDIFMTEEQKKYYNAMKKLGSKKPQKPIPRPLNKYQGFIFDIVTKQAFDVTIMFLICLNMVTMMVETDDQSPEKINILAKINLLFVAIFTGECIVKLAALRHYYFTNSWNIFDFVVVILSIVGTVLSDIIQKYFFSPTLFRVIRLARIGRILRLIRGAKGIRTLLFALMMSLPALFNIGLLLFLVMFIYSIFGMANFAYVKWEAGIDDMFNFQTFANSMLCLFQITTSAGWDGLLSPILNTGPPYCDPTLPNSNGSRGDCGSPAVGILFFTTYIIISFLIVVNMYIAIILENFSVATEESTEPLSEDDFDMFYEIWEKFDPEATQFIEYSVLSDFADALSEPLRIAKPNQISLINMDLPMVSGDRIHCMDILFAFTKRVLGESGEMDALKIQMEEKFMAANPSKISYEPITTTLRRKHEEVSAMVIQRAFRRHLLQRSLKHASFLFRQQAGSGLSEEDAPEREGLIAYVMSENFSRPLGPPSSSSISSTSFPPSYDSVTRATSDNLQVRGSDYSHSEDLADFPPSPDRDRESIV

## CC(C)(C)CCN1CCC2(CC1)CC2NC(=O)c1cc(F)cc(Cl)c1 (centres unmarked) [Example 28, 3-Chloro-N-(6-(3,3-dimethylbutyl)-6-azaspiro[2.5]octan-1-yl)-5-fluorobenzamide]
Cardiac Na+ channels
  IC50: 37.2 µM
Cav3.3
  IC50: 210 nM
DRG ion channels Na+
  IC50: 23.4 µM
Cav3.1
  IC50: 280 nM
DRG ion channels K+
  IC50: ~100 µM

## CC(C)(C)NC(=O)CN1CCC2(CC1)CC2C(=O)Nc1cc(F)cc(C(F)(F)F)c1 (centres unmarked) [Example 141, 6-(2-(tert-Butylamino)-2-oxoethyl)-N-(3-fluoro-5-(trifluoromethyl)phenyl)-6-azaspiro[2.5]octane-1-carboxamide]
Cardiac Na+ channels; 3 μM, values in brackets, read-out: Cardiac Na+ (%) inh. at 3 μM
  inhibition at 3 µM: 28%
Cav3.3
  IC50: 230 nM
DRG ion channels Na+
  IC50: > 30 µM
Cav3.1
  IC50: 340 nM
DRG ion channels K+
  IC50: > 30 µM

## CC(C)(C)CCN1C[C@@H]2[C@@H](CNC(=O)c3cc(Cl)cc(Cl)c3)[C@@H]2C1 [ML218, 3,5-Dichloro-N-[[(1α,5α,6-exo,6α)-3-(3,3-dimethylbutyl)-3-azabicyclo[3.1.0]hex-6-yl]methyl]benzamide, reference compound]
Cardiac Na+ channels
  IC50: 39.8 µM
Cav3.3
  IC50: 270 nM
DRG ion channels Na+
  IC50: 55.6 µM
Cav3.1
  IC50: 140 nM
DRG ion channels K+
  IC50: 79.7 µM

## CC(C)(C)NC(=O)CN1CCC(CNC(=O)c2cc(F)cc(Cl)c2)CC1 [Z944, reference compound]
Cardiac Na+ channels
  IC50: 21.4 µM
Cav3.3
  IC50: 570 nM
DRG ion channels Na+
  IC50: > 30 µM
Cav3.1
  IC50: 110 nM
DRG ion channels K+
  IC50: > 30 µM
